Measurements reported in US20220008359A1, “COMBINATION ANTI-CANCER PRODUCTS AND METHODS” (priority 2020, published 2022).
Marks after values point to notes of the source that are not given here.

Legend:
Format in all cases: cell-based, human
[1] = tested on: H1975 cells (wild type sensitive); assay: In-cell immunostaining of protein expression and phosphorylation, H1975 wild type cells; design: HDAC 1 expression / HDAC 2 expression / HDAC 3 expression / HDAC 4 expression / HDAC 5 expression / HDAC 6 expression / HDAC 7 expression / HDAC 8 expression / HDAC 9 expression / HDAC 10 expression / HDAC 11 expression: scale not given here; details: 6 h
Protocol: (§1) […] Cells were fixed in place 6 hours after treatment and immunostaining of single cells performed to determine the levels of each protein/phosphor-protein (n=3+/−SD). * p<0.05 less than vehicle control; # p<0.05 greater than vehicle control.
(§2) Assessments of protein expression and protein phosphorylation. Multi-channel fluorescence HCS microscopes perform true in-cell western blotting. Three independent cultures derived from three thawed vials of cells of a tumor were sub-cultured into individual 96-well plates. Twenty-four hours after plating, the cells are transfected with a control plasmid or a control siRNA, or with an empty vector plasmid or with plasmids to express various proteins. After another 24 hours, the cells are ready for drug exposure(s). At various time-points after the initiation of drug exposure, cells are fixed in place using paraformaldehyde and using Triton X100 for permeabilization. Standard immunofluorescent blocking procedures are employed, followed by incubation of different wells with a variety of validated primary antibodies and subsequently validated fluorescent-tagged secondary antibodies are added to each well. The microscope determines the background fluorescence in the well and in parallel randomly determines the mean fluorescent intensity of 100 cells per well.

[2] = tested on: osimertinib-resistant (OR) H1650 cells; assay: In-cell immunostaining of protein expression and phosphorylation, osimertinib-resistant H1650 cells; details: 6 h, VEH = 100
Protocol: (§3) Generation of erlotinib, afatinib and osimertinib-resistant cells. Cells were incubated in vitro with increasing concentrations of vehicle control or erlotinib or osimertinib until after ˜6 weeks the HCC827 and H1975 and H1650 cells grew with similar kinetics to sensitive cells in either erlotinib ([…]) or osimertinib ([…]), respectively. Afatinib-resistant cells were created in vivo by repeated high dosing until tumors disappeared and then regrew, as previously described.
as §2

[3] = tested on: afatinib-resistant (AR) H1975 cells; assay: In-cell immunostaining of protein expression and phosphorylation, afatinib-resistant H1975 cells; details: 1975 AR; 6 h; GZ17-6.02 2 mM final curcumin, pemetrexed 500 nM; vehicle 100%
Protocol: as §1, §3, §2

[4] = 1975 WT, GZ17-6.02 2 mM final curcumin, pemetrexed 500 nM
[5] = 1975 WT, GZ17-6.02 2 mM final curcumin, pemetrexed 500 nM, vehicle 100%

Nc1nc2[nH]cc(CCc3ccc(C(=O)N[C@@H](CCC(=O)O)C(=O)O)cc3)c2c(=O)[nH]1 [PEM, Pemetrexed]
ERK2 expression [1, 4]: 100 | HDAC 1 expression [1, 4]: 99 | HDAC 2 expression [1, 4]: 93 | HDAC 3 expression [1, 4]: 100 | HDAC 4 expression [1, 4]: 100 | HDAC 5 expression [1, 4]: 98 | HDAC 6 expression [1, 4]: 88 | HDAC 7 expression [1, 4]: 98 | HDAC 8 expression [1, 4]: 101 | HDAC 9 expression [1, 4]: 99 | HDAC 10 expression [1, 4]: 102 | HDAC 11 expression [1, 4]: 101 | ATG5 [1, 5]: 109% | Beclin1 [1, 5]: 112% | CD95 [1, 5]: 100% | CHOP [1, 5]: 107% | ERBB1 [1, 5]: 101% | ERBB2 [1, 5]: 101% | ERBB3 [1, 5]: 99% | ERBB4 [1, 5]: 100% | ERK2 [1, 5]: 99% | FAS-L [1, 5]: 108% | GRP78 [1, 5]: 112% | JAK2 [1, 5]: 102% | P-AKT T308 [1, 5]: 87* % | P-AMPKα T172 [1, 5]: 105% | P-ATG13 S318 [1, 5]: 104% | P-ATM S1980 [1, 5]: 108% | P-B1 [1, 5]: 88% | P-B2 [1, 5]: 96% | P-B3 [1, 5]: 95% | P-B4 [1, 5]: 100% | P-ERK1/2 [1, 5]: 95% | P-JAK2 [1, 5]: 91% | P-NFκB S536 [1, 5]: 85* % | P-PDGFRβ [1, 5]: 90% | P-PERK T980 [1, 5]: 103% | P-SRC Y416 [1, 5]: 94% | P-SRC Y527 [1, 5]: 109% | P-STAT3 Y705 [1, 5]: 88% | P-STAT5 Y694 [1, 5]: 91% | P-ULK1 S317 [1, 5]: 105% | P-ULK1 S757 [1, 5]: 91% | P-c-MET [1, 5]: 94% | P-c-MT [1, 5]: 94% | P-eIF2α S51 [1, 5]: 103% | P-mTOR S2448 [1, 5]: 96% | P-mTOR S2481 [1, 5]: 91% | PDGFRβ [1, 5]: 100% | PP1 [1, 5]: 109% | c-KIT [1, 5]: 99% | c-MET [1, 5]: 100% | p70 S6K [1, 5]: 101% | p70 S6K T389 [1, 5]: 99% | BCL-XL expression ([1]; H1975 WT, VEH = 100): 87* | ERK2 expression ([1]; H1975 WT, VEH = 100): 100 | FLIP-s expression ([1]; H1975 WT, VEH = 100): 101 | MCL-1 expression ([1]; H1975 WT, VEH = 100): 81* | BCL-XL expression [2]: 85* | ERK2 expression [2]: 100 | FLIP-s expression [2]: 93 | MCL-1 expression [2]: 86* | ATG5 [3]: 107% | Beclin1 [3]: 111% | CD95 [3]: 101% | CHOP [3]: 104% | ERBB1 [3]: 101% | ERBB2 [3]: 100% | ERBB3 [3]: 99% | ERBB4 [3]: 100% | ERK2 [3]: 99% | FAS-L [3]: 108% | GRP78 [3]: 109% | JAK2 [3]: 100% | P-AKT T308 [3]: 88% | P-AMPKα T172 [3]: 107% | P-ATG13 S318 [3]: 105% | P-ATM S1980 [3]: 108% | P-B1 [3]: 93% | P-B2 [3]: 97% | P-B3 [3]: 97% | P-B4 [3]: 96% | P-ERK1/2 [3]: 98% | P-JAK2 [3]: 87* % | P-NFκB S536 [3]: 98% | P-PDGFRβ [3]: 84* % | P-PERK T980 [3]: 102% | P-SRC Y416 [3]: 92% | P-SRC Y527 [3]: 109% | P-STAT3 Y705 [3]: 95% | P-STAT5 Y694 [3]: 94% | P-ULK1 S317 [3]: 105% | P-ULK1 S757 [3]: 95% | P-c-MET [3]: 102% | P-c-MT [3]: 88% | P-eIF2α S51 [3]: 103% | P-mTOR S2448 [3]: 95% | P-mTOR S2481 [3]: 83* % | PDGFRβ [3]: 100% | PP1 [3]: 104% | c-KIT [3]: 101% | c-MET [3]: 100% | p70 S6K [3]: 100% | p70 S6K T389 [3]: 97%
